≈ marks a conversion by molar mass, not a printed value. Counter-ions that a name gives are not always drawn. Like-named read-outs stand apart in the source and are kept apart here.
How the values were obtained:
blood pressure [1] = test: hypotensive activity, intravenous injection in anesthetized rats; assay type: in vivo, rats (male wister); conditions: for blood pressure lowering activity (in words): general statement; for ED20: Rattus norvegicus, iv, anesthetized rats, read-out: P-ED20 (dosage causing a 20% lowering of the mean blood pressure)
Description: (§1) Measurement of the hypotensive activity:
(§2) The actions of the prostacyclin derivatives of the invention on the blood pressure and heart rate of rats were examined by intravenous injection under anesthesia.
(§3) Male wister rats weighing about 250 g were used. Urethane (500 mg/kg) and α-chloralose (100 mg/kg) were intraperitoneally administered to the rats. The rats were anesthetized and fixed in place.
(§4) Each of the test compounds was dissolved in a small amount of ethanol and diluted with 0.05M Tris buffer saline (pH 9) to adjust the final ethanol concentration to not more than 5%. The solution was intravenously injected into the rats through a catheter inserted into the femoral vein.
(§5) The blood pressure of the rats was measured by a pressure transducer through a catheter inserted into the carotid artery of the rats. The heart rate was determined from the blood pressure pulse.
(§6) The action of the test compound on the blood pressure was expressed as the dosage (P-ED20, μg/kg) of the test compound which caused a 20% lowering of the mean blood pressure before administration of the compound. The action of the test compound on the heart rate was expressed as the dosage (H-ED10, μg/kg) of the test compound which caused a 10% increase of the heart rate from the heart rate before administration of the test compound.

platelet aggregation [2] = test: in vitro inhibitory activity of platelet aggregation (ADP-induced, rabbit PRP); assay type: cell-based, rabbit (Japanese domestic white male); conditions: for platelet aggregation inhibiting activity (in words): general statement; for IC50: Oryctolagus cuniculus, Platelet, rabbit PRP, 10 μM ADP, 37° C., read-out: IC50 (minimum concentration which inhibited more than 50% of platelet aggregation)
Description: (1) in vitro inhibitory activity of platelet aggregation:
The in vitro platelet aggregation inhibiting activities of the compounds of the invention were examined by using rabbits. Blood was withdrawn from the ear vein of Japanese domestic white male rabbits weighing 2.5 to 3.5 kg. A mixture of a 3.8% trisodium citrate solution and the blood in a ratio of 1:9 was centrifuged at a speed of 1000 rpm for 10 minutes. The upper layer was separated as platelet-rich plasma (PRP). The lower layer was further centrifuged at a speed of 2800 rpm for 10 minutes. The upper layer was separated as platelet-poor plasma (PPP). The number of platelets was adjusted to 6×10^5 /μl to 7×10^5 /μl by diluting the PRP with PPP. 25 microliters of the test compounds prepared as shown below was added in an amount of 25 to 250 microliters of PRP after the adjustment, and the mixture was pre-incubated at 37° C. for 2 minutes, and then 10 μM (final) of ADP was added. By using an aggregometer, changes in transmission were recorded.
The drug was dissolved in ethanol to a concentration of 10 mg/ml. When its activity was measured, it was used after being diluted with phosphate buffer (pH 7.4). Furthermore, after dilution with the buffer, the drug was left to stand at 0° C. for 4 hours, and the activity of the drug was similarly measured.
The rate of inhibition of platelet aggregation was determined from the following equation.
Inhibition rate (%)=(1-T/To)×100
To : the transmittance of the system containing the phosphate buffer,
T: the transmittance of the system to which the test drug was added.
The minimum concentration of the drug which inhibited more than 50% of platelet aggregation was shown as an IC50 value.

[3] = chemical stability at pH 7.4 (half period from UV absorption at 210 nm); assay type: physicochemical; conditions: pH 7.4 phosphate buffer, room temperature, UV 210 nm
Description: Test for the chemical stability of (5E)-5-chloro-PGI2 sodium salt (No. 686) and (5Z)-5-chloro-PGI2 sodium salt (No. 5Z-686):
6.54 ml of 0.02M potassium dihydrogen phosphate and 29.0 ml of 0.01M disodium hydrogen phosphate were mixed, and the pH of the mixture was measured by a pH meter.
The solution of (5E)-5-chloro-PGI2 sodium salt obtained in Example 35 and the solution of (5Z)-5-chloro-PGI2 sodium salt obtained in Example 36 were each added to the above buffer mixture, and their UV spectra were periodically recorded at room temperature. From the absorption values at 210 nm, the half periods of these salts were determined.

[4] = test system: blood pressure / platelet aggregation; test: ratio of the blood pressure lowering activity and the platelet aggregation inhibiting activity; parameters: species or system rats (blood pressure); rabbits (platelets); conditions: for P-ED20 / platelet IC50: P-ED20 rats i.v., IC50 rabbit platelets in vitro; for selectivity of pharmacological activity (in words): compared with PGI2
Description: (2) From the results obtained in Examples 100 and 101, the ratio of the blood pressure lowering activity and the platelet aggregation inhibiting activity was calculated. The result is shown in Table 3 together with the ratio obtained with PGI2.

Lewis lung carcinoma = test: activity of inhibiting metastasis of a malignant tumor; assay type: in vivo, mice
Description: Measurement of the activity of inhibiting metastasis of a malignant tumor:
Mice were used as experimental animals. Lewis lung carcinoma (4×10^5 cells/100 μl) was transplanted into the foot pad of each mouse. For seven days from the 5th to the 11th day after the transplantation, the compound No. 686 of the invention was intraperitoneally administered to the mouse once a day. On the 12th day, the foot at the primary nest was cut off, and the weight of the cut foot (primary nest portion) was measured. On the 20th day after the transplantation, the number of nests which metastasized to the lungs was measured.

heart rate = test: action on heart rate, intravenous injection in anesthetized rats; assay type: in vivo, rats (male wister); conditions: Rattus norvegicus, i.v., read-out: H-ED10 (dosage causing a 10% increase of the heart rate)
Description: as §1, §2, §3, §4, §5, §6

blood pressure [5] = test: action on blood pressure, intraduodenal administration to conscious rats; assay type: in vivo, rats (male SD); conditions: for mean blood pressure: N 4
Description: The prostocyclin derivatives of the invention were intraduodenally administered to conscious rats, and their action on the blood pressure was examined.
Male SD rats weighing about 200 g were used as experimental animals. These rats had been fasted for 16 hours before the start of the experiment. A catheter was inserted into the femoral artery of the rats under ether anesthesia, and then the rats were restrained within a Bollman cage. After more than 1 hour from awakening, each of the test compounds was intraduodenally administered.
The test compound was dissolved in a small amount of ethanol, and then diluted with 0.05M Tris buffer (pH 9) to adjust the final concentration of ethanol to not more than 5%. The mean blood pressure was measured by meaans of a pressure transducer through the catheter inserted into the femoral artery.

platelet aggregation [6] = test: extra vivo inhibitory activity of platelet aggregation after intraduodenal administration; assay type: in vivo, SD strain rats; conditions: for inhibition (%) (rate of platelet aggregation inhibition): 3 mg/kg i.d., blood drawn 30 min after administration, ADP, N 4
Description: extra vivo inhibitory activity of platelet aggregation:
The extra vivo platelet aggregation inhibitory activity of the prostacyclin derivatives of the invention were measured by using […]. The test compound of the invention in ethanol was diluted with 0.05M Tris buffer (pH 9.0) and as a control, only the 0.05M Tris buffer solution was used. These solutions were each intraduodenally administered in a dose of 1 ml/kg to SD strain rats weighing about 200 g which had been fasted for 16 hours. Thirty minutes after the administration, blood was drawn off from the aorta using trisodium citrate so that the ratio of the blood to 3.8% trisodium citrate was 9:1. The blood was centrifuged at a speed of 800 rpm for 10 minutes. The upper layer was separated as platelet-rich plasma (PRP). The lower layer was further centrifuged at a speed of 2800 rpm for 10 minutes. The upper layer was separated as platelet poor plasma (PPP). 250 microliters of the resulting PRP was taken into an aggregometer cuvette, and incubated at 37° C. for 2 minutes. Then, 25 microliters of a 1.25 μM ADP disodium solution adjusted by dissolving with 0.1M tris-HCl buffer (pH 8.0) was added. The aggregation curve was recorded for 3 minutes. The maximum degree of aggregation of platelets within this time period was read, and the rate of inhibition of platelet aggregation was calculated from the following equation.
Rate of platelet aggregation inhibition (%)=(1-(TD /TC)×100
TC : the transmittance of the control glroup (to which only the 0.05M Tris buffer solution was administered),
TD : the transmittance of the drug administered group.

[7] = test system: platelet aggregation / blood pressure; conditions: cited from earlier work
[8] = test system: 15-position dehydrogenase; conditions: cited from earlier work
[9] = cited from earlier work
[10] = 4 hr standing at 0° C. after dilution with phosphate buffer pH 7.4
[11] = 10 μg/kg/day i.p., day 5 to 11, 5 animals

5-Chloro-PGI2 [Compound 500]
blood pressure lowering activity (in words) (blood pressure [1]): low blood pressure lowering activity | platelet aggregation inhibiting activity (in words) (platelet aggregation [2]): high platelet aggregation inhibiting activity

CCCCCC(O)C=CC1C(O)CC2OC(=C(Cl)CCCC(=O)O)CC21 (centres unmarked) [Compound 5Z-686, (5Z)-5-chloro-PGI2, sodium salt]
half period [3]: more than 1 month

CCCCCC(O)C=CC1C(O)CC2OC(=CCCCC(=O)O)C(F)C21 (centres unmarked) [Compound 501, 7-Fluoro-PGI2]
blood pressure lowering activity (in words) (blood pressure [1]): low blood pressure lowering activity | platelet aggregation inhibiting activity (in words) (platelet aggregation [2]): high platelet aggregation inhibiting activity

CCCCCC(O)C=CC1C(O)CC2OC(=C(Cl)CCCC(=O)OC)CC21 (centres unmarked) [Compound 636, (5E)-5-chloro-PGI2 methyl ester]
IC50 (platelet aggregation [2]; 0 hr): 0.62 µg/mL (≈ 1.55 µM) | IC50 (platelet aggregation [2]; [10]): 0.51 µg/mL (≈ 1.27 µM)

CCCCCC(O)C=CC1C(O)CC2OC(=CCCCC(=O)OC)C(F)C21 (centres unmarked) [Compound 637, 7-fluoro-PGI2 methyl ester]
IC50 (platelet aggregation [2]; 0 hr): 0.34 µg/mL (≈ 0.884 µM) | IC50 (platelet aggregation [2]; [10]): 0.38 µg/mL (≈ 0.988 µM)

CCCCCC(O)C=CC1C(O)CC2OC(=C(Cl)CCCC(=O)O)CC21 (centres unmarked) [Compound 686, (5E)-5-chloro-PGI2, sodium salt]
P-ED20 / platelet IC50 [4]: 17.1 | selectivity of pharmacological activity (in words) [4]: higher selectivity of pharmacological activity than PGI2 | ED20 (blood pressure [1]): 2.4 µg/kg | Number of nests which metastasized to the lungs (measured on the 20th day) (Lewis lung carcinoma; [11]): 25.6 ± 12.0 | Weight of the primary next portion measured on the 12th day (Lewis lung carcinoma; [11]): 2.17 ± 0.86 g | metastasis of the primary nest to the lungs (in words) (Lewis lung carcinoma; Table 6): inhibited metastasis of the primary nest to the lungs | primary nest (in words) (Lewis lung carcinoma; Table 6): reduced the primary nest | ED10 (heart rate): > 10 µg/kg | IC50 (platelet aggregation [2]; 0 hr): 0.14 µg/mL | IC50 (platelet aggregation [2]; [10]): 0.12 µg/mL | half-life [3]: ~22 days

CCCCCC(O)C=CC1C(O)CC2OC(=CCCCC(=O)O)C(F)C21 (centres unmarked) [Compound 688, sodium salt of 7-fluoro-PGI2]
P-ED20 / platelet IC50 [4]: 14.0 | selectivity of pharmacological activity (in words) [4]: higher selectivity of pharmacological activity than PGI2 | mean blood pressure (blood pressure [5]; 1 mg/kg i.d., 0 min): 102 ± 4 | mean blood pressure (blood pressure [5]; 1 mg/kg i.d., 5 min): 101 ± 4 | mean blood pressure (blood pressure [5]; 1 mg/kg i.d., 10 min): 97 ± 3 | mean blood pressure (blood pressure [5]; 1 mg/kg i.d., 15 min): 99 ± 4 | mean blood pressure (blood pressure [5]; 1 mg/kg i.d., 30 min): 104 ± 3 | mean blood pressure (blood pressure [5]; 1 mg/kg i.d., 60 min): 100 ± 4 | mean blood pressure (blood pressure [5]; 1 mg/kg i.d., 120 min): 100 ± 2 | mean blood pressure (blood pressure [5]; 3 mg/kg i.d., 0 min): 104 ± 2 | mean blood pressure (blood pressure [5]; 3 mg/kg i.d., 5 min): 100 ± 3 | mean blood pressure (blood pressure [5]; 3 mg/kg i.d., 10 min): 100 ± 3 | mean blood pressure (blood pressure [5]; 3 mg/kg i.d., 15 min): 103 ± 2 | mean blood pressure (blood pressure [5]; 3 mg/kg i.d., 30 min): 102 ± 3 | mean blood pressure (blood pressure [5]; 3 mg/kg i.d., 60 min): 102 ± 2 | mean blood pressure (blood pressure [5]; 3 mg/kg i.d., 120 min): 100 ± 2 | ED20 (blood pressure [1]): 0.7 µg/kg | ED10 (heart rate): 1.9 µg/kg | IC50 (platelet aggregation [2]; 0 hr): 0.05 µg/mL | IC50 (platelet aggregation [2]; [10]): 0.05 µg/mL | inhibition (%) (rate of platelet aggregation inhibition) (platelet aggregation [6]): 87.5 ± 5.8% | platelet aggregation inhibiting activity (in words) (platelet aggregation [6]; Table 5, 3 mg/kg i.d., rats): stronger platelet aggregating activity than the sodium salt of PGI2

CCCCC[C@H](O)/C=C/[C@@H]1[C@H]2C/C(=C/CCCC(=O)O)O[C@H]2C[C@H]1O [PGI2, Prostaglandin I2, reference compound]
P-ED20 / platelet IC50 [4]: 4.3 | ED20 (blood pressure [1]): 0.02 µg/kg | doses required for platelet aggregation inhibiting action and antihypertensive action [7]: almost equal to each other | metabolism in vivo [8]: rapidly metabolized by a 15-position dehydrogenase | half period of its activity at physiological pH [9]: only about several minutes | ED10 (heart rate): 0.04 µg/kg | IC50 (platelet aggregation [2]; 0 hr): 0.0047 µg/mL (≈ 0.0133 µM) | IC50 (platelet aggregation [2]; [10]): 0.56 µg/mL (≈ 1.59 µM)

CCCCCC(O)C=CC1C(O)CC2OC(=CCCCC(=O)O)CC21 (centres unmarked) [Sodium salt of PGI2, reference compound]
mean blood pressure (blood pressure [5]; 3 mg/kg i.d., 0 min): 109 ± 1 | mean blood pressure (blood pressure [5]; 3 mg/kg i.d., 5 min): 84 ± 3 | mean blood pressure (blood pressure [5]; 3 mg/kg i.d., 10 min): 101 ± 4 | mean blood pressure (blood pressure [5]; 3 mg/kg i.d., 15 min): 110 ± 2 | mean blood pressure (blood pressure [5]; 3 mg/kg i.d., 30 min): 109 ± 1 | mean blood pressure (blood pressure [5]; 3 mg/kg i.d., 60 min): 107 ± 2 | mean blood pressure (blood pressure [5]; 3 mg/kg i.d., 120 min): 103 ± 2 | blood pressure lowering activity (in words) (blood pressure [5]; Table 4, i.d., conscious rats): stronger blood pressure lowering activity than the compound No. 688 of the present invention (especially five minutes later) | inhibition (%) (rate of platelet aggregation inhibition) (platelet aggregation [6]): 56.5 ± 11.3%

From patent US4472428A, “Halogenated prostacyclins pharmaceutical use thereof and hydroxy intermediates therefore” (Teijin Limited, priority 1980, dated 1984)
